Measurements published in BindingDB's records for doi:10.1016/j.bmcl.2007.08.004 (Pfizer, 2007).
pIC50: −log10 of the molar value.

Target: T1, 3-hydroxy-3-methylglutaryl-coenzyme A reductase (Rattus norvegicus, UniProt P51639)
T1 sequence (P51639 whole entry): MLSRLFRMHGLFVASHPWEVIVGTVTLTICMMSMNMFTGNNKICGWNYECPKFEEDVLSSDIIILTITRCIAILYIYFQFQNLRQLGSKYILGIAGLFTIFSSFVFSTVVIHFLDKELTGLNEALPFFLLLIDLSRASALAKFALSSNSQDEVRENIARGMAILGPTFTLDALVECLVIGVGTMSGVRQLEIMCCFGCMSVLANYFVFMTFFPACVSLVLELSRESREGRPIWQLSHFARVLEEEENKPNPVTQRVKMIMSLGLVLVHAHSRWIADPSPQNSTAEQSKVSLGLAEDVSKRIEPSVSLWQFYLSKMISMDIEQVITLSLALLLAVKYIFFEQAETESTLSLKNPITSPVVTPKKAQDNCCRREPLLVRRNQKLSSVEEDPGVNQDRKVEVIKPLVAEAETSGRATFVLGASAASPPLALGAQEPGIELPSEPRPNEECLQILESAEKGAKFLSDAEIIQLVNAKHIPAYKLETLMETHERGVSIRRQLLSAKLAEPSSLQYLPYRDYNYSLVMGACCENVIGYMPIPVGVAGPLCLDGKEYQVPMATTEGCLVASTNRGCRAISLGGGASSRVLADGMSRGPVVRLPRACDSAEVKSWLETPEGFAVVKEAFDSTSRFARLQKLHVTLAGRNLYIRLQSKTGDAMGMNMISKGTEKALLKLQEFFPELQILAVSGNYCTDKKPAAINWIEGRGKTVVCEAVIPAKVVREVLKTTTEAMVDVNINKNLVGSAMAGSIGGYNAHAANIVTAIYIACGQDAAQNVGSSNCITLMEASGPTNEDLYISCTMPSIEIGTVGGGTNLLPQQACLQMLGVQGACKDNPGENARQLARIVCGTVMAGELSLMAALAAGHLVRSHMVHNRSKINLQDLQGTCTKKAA
Test: HMG-CoA Reductase In Vitro Assay
Description: Assay for HMG-CoA reductase was based on the conversion of isotopically labeled HMG-CoA to mevalonic acid using rat liver microsomes as enzyme source. The product, [14C]-mevalonic acid was lactonized and separated from excess substrate via an anion ion exchange resin column, and radioactivity was counted on a scintillation counter.

CC(C)c1c(C(=O)N2CCc3ccccc3C2)nn(-c2ccc(F)cc2)c1OC[C@@H](O)C[C@@H](O)CC(=O)O [(3R,5S)-6-{[1-(4-fluorophenyl)-4-(propan-2-yl)-3-(1,2,3,4-tetrahydroisoquinolin-2-ylcarbonyl)-1H-pyrazol-5-yl]oxy}-3,5-dihydroxyhexanoic acid]
pIC50: 8.00
